Assay results taken from article PMC9545781 (British Journal of Clinical Pharmacology, 2022).
Where “and” joins values, the source holds several entries; their conditions need not be identical. Identical values can stand only once. Entries after “also recorded” stand apart in the source; their conditions may differ. Like-named read-outs stand apart in the source and are kept apart here.

Assays:
TSPO [1] = conditions: cited from earlier work
[2] = tested on: γ‐aminobutyric acid‐a receptor; conditions: cited from earlier work
TSPO [3] = biological target: TSPO (Homo sapiens, UniProt P30536); assay: Competition radioligand binding with [3H]PK11195 in human brain membranes
Method: The assay was terminated via filtration through Whatman GF/B filters. Scintillation fluid (4 mL/vial, Perkin Elmer Ultima‐Gold MV) was added and vials counted on a Perkin Elmer Tricarb 2900 liquid scintillation counter.
Tissue was obtained from 8 donors from the UK Multiple Sclerosis (MS) Tissue Bank at Imperial College. […] The tissue was stored at -80 °C until use.
Tissue blocks were homogenised in 10 times weight for volume (w/v) buffer (0.32mM sucrose, 5mM Tris base, 1mM MgCl2, pH 7.4, 4 °C). Homogenates were centrifuged (32,000g, 20min, 4 °C) followed by removal of the supernatant. Pellets were re-suspended in at least 10 times w/v buffer (50mM Tris base, 1mM MgCl2, pH 7.4, 4 °C) followed by two washes by centrifugation (32,000g, 20min, 4 °C). Membranes were suspended in buffer (50mM Tris base, 1mM MgCl2, pH 7.4, 4 °C) at a protein concentration of approximately 4 mg protein/ml and aliquots were stored at -80 °C until use.
All competition data were analysed using the iterative non-linear regression curve fitting software supplied with GraphPad Prism 8.1. A single site competition model was fitted to the data using the least squares algorithm. […] Data are expressed as the mean ± standard error of the mean (SEM). The Student’s t-test (GraphPad Prism 8.1) was used to determine statistical significance.

[4] = Plasma protein binding by equilibrium dialysis; conditions: plasma spiked at 1 μM, 37°C, 4 hours, mean (SEM)
Method: Plasma protein binding was measured by equilibrium dialysis using 96‐well plate blocks with 2 compartments separated by a vertical cylinder of dialysis membrane (molecular weight cut off ~8000 Da; ThermoFisher Scientific). […] The unit was covered and incubated at 37°C on an orbital shaker for 4 hours. After incubation, samples from both plasma (bound) chamber and the buffer (free) chamber were taken and matrix‐matched by addition of the alternative blank matrix. Acetonitrile containing internal standard was added to all samples. […] The ratio of responses in free to bound samples equates to the free fraction.

[5] = Solubility limitation of etifoxine in binding assay; format: physicochemical; conditions: assay buffer pH 7.4
Method: The specific binding component was determined using unlabelled PK11195 (10µM). Following incubation, assays were terminated via filtration through Whatman GF/B filters, followed by 3 x 1 ml washes with ice-cold wash buffer (50mM Tris Base, 1.4mM MgCl2, pH 7.4, 4 °C). Whatman GF/B filters were pre-incubated with 0.05% polyethyleneimine (60min) before filtration. Scintillation fluid (4ml/vial, Perkin Elmer Ultima Gold MV) was added and vials counted on a Perkin Elmer Tricarb 2900 liquid scintillation counter. For each donor, each point was performed in quadruplicate. Ki (nM) values were determined using GraphPad Prism 8.1 software (GraphPad Software Inc, USA).

[6] = biological target: γ‐aminobutyric acid‐a receptor; conditions: rodent brain; cited from earlier work
[7] = tested on: experimental autoimmune encephalomyelitis mouse model; conditions: cited from earlier work
[8] = Open-label clinical pharmacokinetic study of oral XBD173 and etifoxine in healthy volunteers (plasma LC-MSMS); format: in vivo, human; conditions: for AUC0‐4 h / Cmax / Tmax / AUC: 50 mg etifoxine single oral dose; for AUC: read-out: AUC0‐4 h
Method: This was a single centre, open‐label study enrolling 4 adult healthy volunteers (aged 35–65 y) irrespective of rs6971 genotype. Detailed inclusion and exclusion criteria are shown in the supplementary information. […] As a precaution, therefore, a long washout period was chosen. The first dose was taken at the clinical research facility and the participant was monitored for 4 hours. Subsequent doses were taken at home by the participant. On day 7, the participant returned for a final assessment. […] The PI of the study was Paul M. Matthews (DPhil, FRCP, FMedSci) who is an author on the manuscript.
Plasma samples for pharmacokinetic analysis were obtained on day 1 at 0.5, 1, 2, 3, 4 hours following the first dose. […] Plasma samples were stored at −20°C or lower until analysis. Plasma samples (25 μL) were prepared for analysis by protein precipitation with acetonitrile containing internal standard (tolbutamide; 200 μL) followed by mixing (150 rpm, 15 min) and centrifugation (1500 g, 15 min). The supernatant (50) μL was diluted with water (100 μL) and mixed (100 rpm, 15 min). […] Injection volume was 1 μL.

[9] = human, plasma, po, 50 mg, 50mg etifoxine single oral dose, Mean (SEM)
[10] = human, plasma, po, 50 mg, 50mg etifoxine single oral dose, participant 2
[11] = human, plasma, po, 50 mg, 50mg etifoxine single oral dose, participant 3
[12] = human, plasma, po, 50 mg, 50mg etifoxine single oral dose, participant 4
[13] = human, plasma, po, 50 mg, 50mg etifoxine single oral dose, participant 1
[14] = human, plasma, po, 50 mg, Median of 4 participants
[15] = human, plasma, po, 50 mg, participant 1
[16] = human, plasma, po, 50 mg, participant 2
[17] = human, plasma, po, 50 mg, participant 3
[18] = human, plasma, po, 50 mg, participant 4

TSPO (Homo sapiens, UniProt P30536), sequence (P30536 2-169): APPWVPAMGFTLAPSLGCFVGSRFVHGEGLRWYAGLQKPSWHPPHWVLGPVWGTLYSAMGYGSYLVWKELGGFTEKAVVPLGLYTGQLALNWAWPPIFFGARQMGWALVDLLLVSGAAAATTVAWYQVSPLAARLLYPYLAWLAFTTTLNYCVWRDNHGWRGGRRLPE

In the case of `CCNC1=Nc2ccc(Cl)cc2C(C)(c2ccccc2)O1` (centres unmarked) [etifoxine], the “Binding affinity for TSPO” value (TSPO [1]; rodent heart) is listed as 22.5 µM, the “Binding affinity for TSPO” value (TSPO [1]; rodent kidney) is listed as 14 µM and 9 µM and the “Concentration above which pharmacodynamic actions at the receptor are elicited” value [2] is listed as “above 1 μM”. The Ki (TSPO [3]; read-out: Affinity of etifoxine for TSPO estimated here, value used for the occupancy estimate) was 7.6 µM, the Ki (TSPO [3]; read-out: Estimated Ki for the whole population, single site binding curve, human brain tissue, 8 donors (4 HABs, 4 LABs), 95% CI 4.5–14.6 μM, competition curve did not fully plateau) was 7.8 µM and ~7.8 µM and the Ki (TSPO [3]; read-out: Mean Ki, human brain tissue, high affinity binders (HABs), n = 4, [3H]PK11195 0.3 nM) was 7.6 ± 2.2 µM. The “Fraction in plasma bound” value [4] was 99.71%, the Plasma free fraction [4] was 0.29% and the “Highest concentration that could be studied due to limitations of solubility” value [5] was at most 30 µM. The IC50 [6] was about 6.7 µM, the Clinical scores [7] was “improved clinical scores” and the “AUC0‐4 h” value ([8]; plasma, Max of 4 participants) was 83 ng·h/mL. The “AUC0‐4 h” value ([8]; plasma, Min of 4 participants) was 59 ng·h/mL, the Adverse events ([8]; 4 healthy volunteers, XBD173 90 mg once daily 7 days and etifoxine 50 mg TDS 7 days) was “No adverse events were reported” and the “Accumulation after multiple doses” value ([8]; etifoxine 50 mg TDS for 7 days, day 7 vs day 1 plasma concentration) was “did not find evidence for significant etifoxine accumulation; also recorded: did not find evidence for drug accumulation”. It also gave a concentration at 30 min ([8]; human, plasma, po, 50 mg, 50mg etifoxine single oral dose, 30 mins, participant 2) of 4 ng/mL, a concentration at 60 min [8, 9] of 8.2 ng/mL and a concentration at 60 min [8, 10] of 15.9 ng/mL. For the same compound, the concentration at 60 min [8, 11] was 6.2 ng/mL, the concentration at 60 min [8, 12] was 2.4 ng/mL and the concentration at 120 min [8, 9] was 29.8 ng/mL. For the same compound, the concentration at 120 min [8, 13] was 15.5 ng/mL, the concentration at 120 min [8, 10] was 33.4 ng/mL and the concentration at 120 min [8, 11] was 39.4 ng/mL. For the same compound, the concentration at 120 min [8, 12] was 30.7 ng/mL, the concentration at 180 min [8, 9] was 22.9 ng/mL and the concentration at 180 min [8, 13] was 24.2 ng/mL. For the same compound, the concentration at 180 min [8, 10] was 12.3 ng/mL, the concentration at 180 min [8, 11] was 27.1 ng/mL and the concentration at 180 min [8, 12] was 27.9 ng/mL. The concentration at 240 min [8, 9] was 18 ng/mL, the concentration at 240 min [8, 13] was 22.7 ng/mL and the concentration at 240 min [8, 10] was 9.2 ng/mL. The concentration at 240 min [8, 11] was 20.1 ng/mL, the concentration at 240 min [8, 12] was 20.1 ng/mL and the Cmax [8, 14] was 32 ng/mL. It also gave a Tmax [8, 14] of 2 h, a Cmax [8, 15] of 24 ng/mL and a Tmax [8, 15] of 3 h. For the same compound, the Cmax [8, 16] was 33 ng/mL, the Tmax [8, 16] was 2 h and the Cmax [8, 17] was 39 ng/mL. For the same compound, the Tmax [8, 17] was 2 h, the Cmax [8, 18] was 31 ng/mL and the Tmax [8, 18] was 2 h. For the same compound, the AUC ([8]; human, plasma, po, 50 mg, plasma, Median of 4 participants) was 68 ng·h/mL, the AUC ([8]; human, plasma, po, 50 mg, plasma, participant 1) was 59 ng·h/mL and the AUC ([8]; human, plasma, po, 50 mg, plasma, participant 2) was 64 ng·h/mL. It also gave an AUC ([8]; human, plasma, po, 50 mg, plasma, participant 3) of 83 ng·h/mL and an AUC ([8]; human, plasma, po, 50 mg, plasma, participant 4) of 71 ng·h/mL.
